The results in this text go back to BindingDB's records for doi:10.1111/cbdd.12572 (Depaul University, 2015).

This experiment addresses T1, Caspase-1 (Homo sapiens, UniProt P29466).
T1 sequence (P29466 whole entry): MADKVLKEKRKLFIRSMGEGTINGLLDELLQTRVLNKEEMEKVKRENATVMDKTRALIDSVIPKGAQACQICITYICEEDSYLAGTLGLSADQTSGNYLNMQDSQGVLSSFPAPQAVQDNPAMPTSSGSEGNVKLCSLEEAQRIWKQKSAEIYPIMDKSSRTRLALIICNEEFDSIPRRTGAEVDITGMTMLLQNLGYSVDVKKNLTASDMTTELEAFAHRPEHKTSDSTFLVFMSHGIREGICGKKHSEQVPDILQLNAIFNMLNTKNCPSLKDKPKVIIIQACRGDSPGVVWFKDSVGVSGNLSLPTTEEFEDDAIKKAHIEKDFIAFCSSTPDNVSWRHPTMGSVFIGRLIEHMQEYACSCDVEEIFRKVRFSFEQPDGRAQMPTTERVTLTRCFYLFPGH
Nature of the experiment: Inhibition Assay. As to conditions: pH 7.5; 25 °C. As for the experimental part: All assays were performed at 100 µL total volume in triplicate and monitored for 60 minutes at room temperature in a 96-well plate format in HEPES Buffer (100 mM HEPES, 100 mM NaCl, 0.1% CHAPS, 10% sucrose, pH 7.5) on a BioTek Synergy H1 plate reader. Fluorescence was measured with excitation and emission wavelengths of 380 nm and 460 nm, respectively. Caspase-1 was activated with 100 µM DTT for 30 minutes and held constant at 5 nM for all assays. WEHD-AMC was used as a substrate for all assays at 10 µM unless otherwise specified and reactions were monitored immediately upon addition to caspase-1.
Take `CCCCCC#CCC#CCC#CCC#CCCCC(=O)O`: the IC50 was more than 10000 nM.

In the case of `N#C/C(=C\c1ccc(O)c(O)c1)C(=O)OC/C=C/c1ccccc1`, the IC50 turned out to be 2230 nM.

With `CCN(CC)C(=S)SSC(=S)N(CC)CC` [1,1',1'',1'''-[disulfanediylbis(carbonothioylnitrilo)]tetraethane], the 50% inhibitory concentration (IC50) was found to be 1800 nM.

Take `O=c1c2ccccc2[se]n1-c1ccccc1` [2-Phenyl-benzo[d]isoselenazol-3-one]: the IC50 came out at 4040 nM.

For `CC1=CC(=O)C(C(C)C)=CC1=O` [2-methyl-5-(propan-2-yl)cyclohexa-2,5-diene-1,4-dione (F8)], the 50% inhibitory concentration (IC50) came out at 1080 nM.

On to `CCCCCCCCCCCCCCCC(=O)OC[C@H](O)[C@H]1OC(=O)C(O)=C1O` [Ascorbyl Palmitate], for which the concentration for half-maximal inhibition (IC50) was determined as 600 nM.

For `CC(Cc1ccc(O)c(O)c1)C(C)Cc1ccc(O)c(O)c1` (stereo not drawn) [LOX inhibitor, N/A], the IC50 was more than 10000 nM.

`CCCCCCCCOC(=O)/C=C/c1ccc(O)c(O)c1` [Octyl (2E)‐3‐(3,4‐dihydroxyphenyl)prop‐2‐enoate (E6)]: the IC50 is 840 nM.

Turning to `CC1(C)CCC2=C(O1)c1ccccc1C(=O)C2=O` [R115 (Reactive Blue 2)], the IC50 worked out at 1690 nM.

Take `Cc1cc2c(C(C)C)c(O)c(O)c(C=O)c2c(O)c1-c1c(C)cc2c(C(C)C)c(O)c(O)c(C=O)c2c1O` [Tash 1]: the concentration for half-maximal inhibition (IC50) is 1230 nM.

Take `C[C@]12C=CC(=O)C=C1CC[C@@H]1C2=CC[C@]2(C)[C@@H](C(=O)CN3CCN(c4cc(N5CCCC5)nc(N5CCCC5)n4)CC3)CC[C@@H]12` [U74389G (B9)]: the half-inhibitory concentration (IC50) was 174 nM.

Regarding `Cc1c(C)c2c(c(C)c1O)CC[C@](C)(CN1CCN(c3cc(N4CCCC4)nc(N4CCCC4)n3)CC1)O2` [U83836E (B8)], the IC50 was determined as 167 nM.

As to `CC/C=C\C/C=C\C/C=C\C/C=C\C/C=C\C/C=C\CCC(=O)O` [all-cis-docosa-4,7,10,13,16,19-hexaenoic acid], the concentration for half-maximal inhibition (IC50) worked out at 6760 nM.
